Measured values taken from patent publication US7892574B2, “Topical administration of oxazolidinones for transdermal delivery” (Pharmacia & Upjohn Company, LLC, priority 1998, dated 2011).

Columns and labels:
Type in all cases: in vivo
[1] = test system: acne; experiment: Human who has acne treated with an Oxazolidinone ointment; conditions: person, ointment containing 30 mg/ml, topical, twice daily
Procedure: A Human Who has Acne is Treated with an Oxazolidinone Ointment

[2] = test system: otitis media; experiment: Human who has an ear infection treated with Oxazolidinone solution; conditions: child, ten drops of solution containing 10 mg/ml into the ear twice daily for ten days; before 10 days
Procedure: A Human Who has an Ear Infection is Treated with Oxazolidinone Solution
Ten drops of a solution containing 10 mg/ml of (S)-N-[[3-[3-fluoro-4-(4-morpholinyl)phenyl]-2-oxo-5-oxazolidinyl]methyl]acetamide is dropped into the ear twice daily for ten days with an eye dropper and is immediately followed by closing the outer ear canal with cotton.

[3] = test system: wound infection; experiment: Human with wound infection treated with Oxazolidinone gel; conditions: person, punctured finger, gel containing 1%, twice daily for 10 days
Procedure: Human with Wound Infection is Treated with Oxazolidinone Gel
A 65 kg person who has a severely swollen and painful finger with a history of having punctured the finger on a rose thorn two days previously is treated by administering a gel containing 1% N-((5S)-3-(3-fluoro-4-(4-(2-fluoroethyl)-3-oxopiperazin-1-yl)phenyl)-2-oxooxazolidin-5-ylmethyl)acetamide twice daily for 10 days. The site of inflammation is kept lightly covered with a sterile bandage following antibiotic therapy.

SMILES: CC(=O)NC[C@H]1CN(c2ccc(N3CCN(C(=O)CO)CC3)c(F)c2)C(=O)O1 [Example 1, (S)-N-[[3-[3-Fluoro-4-[4-(hydroxyacetyl)-1-piperazinyl]-phenyl]-2-oxo-5-oxazolidinyl]methyl]acetamide]
- reddened and swollen pustules after administration [1]: greatly reduced

SMILES: CC(=O)NC[C@H]1CN(c2ccc(N3CCOCC3)c(F)c2)C(=O)O1 [Example 2, (S)-N-[[3-[3-Fluoro-4-(4-morpholinyl)phenyl]-2-oxo-5-oxazolidinyl]methyl]acetamide]
- fever [2]: the fever is down
- pain [2]: the pain is gone

SMILES: CC(=O)NC[C@H]1CN(c2ccc(N3CCN(CCF)C(=O)C3)c(F)c2)C(=O)O1 [Example 4, N-((5S)-3-(3-Fluoro-4-(4-(2-fluoroethyl)-3-oxopiperazin-1-yl)phenyl)-2-oxooxazolidin-5-ylmethyl)acetamide]
- wound healing [3]: The wound heals
